The values that follow are results of earlier work, collected in patent US10399948B2, “Negative allosteric modulators of metabotropic glutamate receptor 3” (Vanderbilt University, priority 2015, dated 2019).

Molecules are shown by their SMILES.

One data set relates to rat. The conditions noted are these: normal animals; cited from earlier work.
Another data set relates to mouse. The conditions noted are these: normal animals; cited from earlier work.
Data set [1] relates to central mGlu2 and mGlu3 receptors. The conditions noted are these: in vivo; cited from earlier work.
In a further data set the test system is C57Bl6/J mice. The settings on record: FST; cited from earlier work.
The test system of the next data set is Helpless (H) mice. The settings on record: cited from earlier work.
The next data set has as its system mice. The settings on record: cited from earlier work.
For data set [2], the system named is Aβ-induced neurodegeneration. The settings on record: cited from earlier work.
The test system of the next data set is glioma stem cells (GSC). The conditions noted are these: in vitro; cited from earlier work.
In data set [3] the test system is glioma stem cells (GSC) tumors. The conditions noted are these: compared with controls; cited from earlier work.
For another data set, the system named is schizophrenic patients. The conditions noted are these: compared to placebo, P<0.001 at week 4; cited from earlier work.

In the case of `N[C@](CC1c2ccccc2Oc2ccccc21)(C(=O)O)[C@H]1C[C@@H]1C(=O)O` [LY341495], the antidepressant-like effects result with rat and in the data set with mouse was “Antidepressant-like effects” in each case. Further, the “hypolocomotor effect of mGlu2/3 agonist LY379268” value in data set [1] is listed as “achieved the same result”. The immobility time entry in the data set on C57Bl6/J mice was “dose-dependently reduced”. In the data set with Helpless (H) mice (Helpless (H) mice), the “activity in the tail suspension test” value is “active”. In addition, the “antidepressant effect in helpless mice” value with Helpless (H) mice (acute administration) was “potent antidepressant effect”. Moreover, in the data set with mice, the marble-burying behavior result is reported as “significantly reduce”. Further, the “amplification of Aβ-induced neurodegeneration by LY566332” value in [2] was “prevented”. Also, in the data set with glioma stem cells (GSC), the “proliferation rates and proportion of cells in S phase” value is recorded as “decreased in a time-dependent manner”. For the same compound, in data set [3], the “growth rate and volume of tumors” value was “reduced”.

For `N[C@@]1(C(=O)O)CS(=O)(=O)[C@H]2[C@H](C(=O)O)[C@H]21` [LY404039], the “positive and negative symptoms of schizophrenia” value in the data set with schizophrenic patients is on record as “statistically significant improvements”.
